How the values were obtained:
[1] = Subject Global Evaluations in Phase III open-label multi-day study of IV acetaminophen (4 point categorical rating scale); type: in vivo, human; conditions: for Subject Global Assessment, level of satisfaction with the study treatments, difference versus control group: any of the assessment points
Experimental: A Phase III, open-label, prospective, multi-center, repeated dose, randomized, multi-day safety and efficacy study was conducted in 213 subjects. The subjects were randomized as follows: 92 subjects to a q6 group (1 g of IV acetaminophen every 6 hours), 91 subjects to a q4 group (650 mg of IV acetaminophen every 4 hours), and 28 subjects to a standard of care control group, which could include oral acetaminophen, but no IV acetaminophen. […] The primary endpoint was an assessment of safety using spontaneous adverse event reporting and daily liver enzymes. Efficacy evaluations were also performed. All analyses of efficacy were conducted on the modified intent-to-treat population separately for the two indications (acute pain and fever). Subjects' Global Evaluations were summarized descriptively (n, mean, SD, median, minimum, and maximum) by treatment group for each study day and for overall assessments. Summary statistics were also provided for each site. Comparisons of efficacy endpoints between the following pairs of treatment groups were investigated using two-sided tests at the 5% level of significance: • IV acetaminophen 1 g versus IV acetaminophen 650 mg • IV acetaminophen 1 g versus standard of care treatment • IV acetaminophen 650 mg versus standard of care treatment A one-way analysis of variance (ANOVA) model with treatment group as the factor was used to test the treatment difference between these pairs. All groups were included in this analysis model. The p-values from the ANOVA model were presented along with the summary statistics. […] A one-way ANOVA model with treatment group as the factor was used to test the treatment difference between each treatment pair: • IV acetaminophen 1 g q6h versus IV acetaminophen 650 mg […] • IV acetaminophen 1 g q6h versus standard of care treatment (Control) • IV acetaminophen 650 mg […] versus standard of care treatment (Control) All endpoints were tested at the 0.05 significance level (two-sided).

[2] = Safety assessment in Phase III open-label multi-day study (adverse event reporting, daily liver enzymes, laboratory, vital signs); type: in vivo, human; conditions: for Tolerability: up to 5 days
Experimental: A Phase III, open-label, prospective, multi-center, repeated dose, randomized, multi-day safety and efficacy study was conducted in […] subjects. The subjects were randomized as follows: 92 subjects to a q6 group (1 g of IV acetaminophen every 6 hours), 91 subjects to a q4 group (650 mg of IV acetaminophen every 4 hours), and 28 subjects to a standard of care control group, which could include oral acetaminophen, but no IV acetaminophen. Subjects who completed 5 days of study treatment included 63 in the q6 group, 59 in the q4 group and 26 in the control group. The primary endpoint was an assessment of safety using spontaneous adverse event reporting and daily liver enzymes. Efficacy evaluations were also performed.
All analyses of safety were conducted on the safety population.
Percentage of subjects withdrawn due to adverse event, percentage of subjects with adverse events (AEs) or serious adverse events (SAEs), and percentage of subjects with clinically meaningful changes in laboratory parameters were summarized.
All adverse events and serious adverse events were coded according to the Medical Dictionary for Regulatory Activities (MedDRA), Version 10.0. […] Liver function test abnormalities were graded using the Common Terminology Criteria for Adverse Events.
For each clinical laboratory parameter, descriptive statistics (n, mean, standard deviation, median, and range) were tabulated for baseline and final values. Change from baseline was tabulated for those subjects who had both baseline and final values. Liver function tests were also evaluated using values that were normalized to the upper limit of normal values for the local laboratory.
A shift table was prepared to present the shift in baseline clinical laboratory values that were clinically relevantly high or low at baseline and/or final measurement.
Descriptive statistics (n, mean, standard deviation, median, and range) were tabulated for changes in vital signs from baseline to final measurement.

CC(=O)Nc1ccc(O)cc1 [IV acetaminophen, acetaminophen]
Subject Global Assessment, level of satisfaction with the side effects related to study treatments, mean rating ([1]; 650 mg q4h IV, day 4, scale 0-3, control 2.2, p=0.1162): 2.5 | Subject Global Assessment, level of satisfaction with the side effects related to study treatments, mean rating ([1]; 650 mg q4h IV, day 5 24 h lookback, scale 0=poor to 3=excellent, control 2.0, p=0.0167): 2.4 | Subject Global Assessment, level of satisfaction with the side effects related to study treatments, mean rating ([1]; 650 mg q4h IV, end of day 5 prior to discharge 24 h lookback, scale 0-3, control 2.0, p=0.0129): 2.4 | Efficacy conclusion based upon the global satisfaction ratings ([1]; 650 mg q4h group): efficacious | Subject Global Assessment, level of satisfaction with the study treatments, difference versus control group ([1]; 650 mg q6h group (so in the source) versus standard of care control): no statistically significant differences | Subject Global Assessment, level of satisfaction with the side effects related to study treatments, mean rating ([1]; 1 g q6h IV, day 4, scale 0-3, control 2.2, p=0.0744): 2.5 | Subject Global Assessment, level of satisfaction with the side effects related to study treatments, mean rating ([1]; 1 g q6h IV, day 5 24 h lookback, scale 0-3, control 2.0, p=0.0062): 2.4 | Subject Global Assessment, level of satisfaction with the side effects related to study treatments, mean rating ([1]; 1 g q6h IV, end of day 5 prior to discharge 24 h lookback, scale 0-3, control 2.0, p=0.0073): 2.5 | Efficacy conclusion based upon the global satisfaction ratings ([1]; 1 g q6h group): efficacious | Subject Global Assessment, level of satisfaction with the study treatments, difference versus control group ([1]; 1 g q6h group versus standard of care control): no statistically significant differences | Subject Global Assessments (study treatments or side effects), difference between the two active treatment groups ([1]; 1 g q6h versus 650 mg q4h, daily 24 h lookback day 2 to end of day 5): no statistically significant differences | Tolerability ([2]; 650 mg dose group (q4h)): well tolerated | Tolerability ([2]; 1000 mg dose group (q6h)): well tolerated | Frequency of liver enzyme elevations seen in the treatment groups ([2]; between treatment groups, includes alanine aminotransferase and aspartate aminotransferase): comparable | Frequency of serious, severe, related, or overall treatment emergent adverse events (TEAEs), difference between the treatment groups ([2]; q6 (1 g), q4 (650 mg) and standard of care control groups): no clinically relevant differences
